Results: US20260001928A1 (CORTERIA PHARMACEUTICALS, priority 2022, published 2026)
*1 amine or outer side, *2 acyl side, *3 side chain or, on linkers, in order; H or OH if unused. Where a SMILES comes first, the peptide text is derived from it. Side-chain parts run from the residue outwards. [ ]: non-standard residue; d: D form. The star is where a group is joined. C20 diacid = O=C(O)CCCCCCCCCCCCCCCCCCC(=O)*; C16 diacid = O=C(O)CCCCCCCCCCCCCCC(=O)*; γGlu = O=C(O)[C@H](CCC(=O)[*:2])N[*:1]; NMeI = CC[C@H](C)[C@H](NC)C(=O)O; Aib = CC(C)(N)C(=O)O

Assays:
[1] = target: T1, human CRF2a receptor (Homo sapiens, UniProt Q13324); experiment: Activity at human CRF2a receptor, cAMP functional assay in TeloHEAC cells; type: cell-based; settings: TeloHEAC cells stably expressing human CRF2a receptor, relative to urocortin 2 (100 nM = 100%)
T1 construct: expressed in transfected cells; host or cells: TeloHEAC cells
T1 sequence (Q13324 1-411): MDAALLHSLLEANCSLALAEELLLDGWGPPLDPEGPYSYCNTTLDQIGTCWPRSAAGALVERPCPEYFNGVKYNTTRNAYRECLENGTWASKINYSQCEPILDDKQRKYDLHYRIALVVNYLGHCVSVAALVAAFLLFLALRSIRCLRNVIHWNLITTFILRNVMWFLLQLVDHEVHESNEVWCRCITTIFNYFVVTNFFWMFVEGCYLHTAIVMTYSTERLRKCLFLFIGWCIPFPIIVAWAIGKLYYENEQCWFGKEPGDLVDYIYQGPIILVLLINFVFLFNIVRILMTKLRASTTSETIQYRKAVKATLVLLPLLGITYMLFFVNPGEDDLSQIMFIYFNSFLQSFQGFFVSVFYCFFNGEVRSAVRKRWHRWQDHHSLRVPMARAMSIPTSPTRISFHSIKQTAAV
In short: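 TeloHEAC cells stably expressing human CRF2a (10000 cells/well, suspended in HBSS/20 mM HEPES with 2 mM IBMX) were exposed to compounds for 30 min at 37 °C. cAMP was read as the 665/620 nm fluorescence ratio after 1 h at room temperature. EC50 was derived relative to 100 nM urocortin 2, set as 100%.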

[2] = target: T2, CFR1R receptor (Homo sapiens, UniProt P34998); experiment: Activity at anti-target CFR1R receptor, cAMP assay in CRF1R-overexpression CHO-K1 cells; type: cell-based; settings: 100% = Sauvagine at 100 nM; for EC50: cAMP
T2 construct: host or cells: CHO-K1 (clone 2)
T2 sequence (P34998 24-415): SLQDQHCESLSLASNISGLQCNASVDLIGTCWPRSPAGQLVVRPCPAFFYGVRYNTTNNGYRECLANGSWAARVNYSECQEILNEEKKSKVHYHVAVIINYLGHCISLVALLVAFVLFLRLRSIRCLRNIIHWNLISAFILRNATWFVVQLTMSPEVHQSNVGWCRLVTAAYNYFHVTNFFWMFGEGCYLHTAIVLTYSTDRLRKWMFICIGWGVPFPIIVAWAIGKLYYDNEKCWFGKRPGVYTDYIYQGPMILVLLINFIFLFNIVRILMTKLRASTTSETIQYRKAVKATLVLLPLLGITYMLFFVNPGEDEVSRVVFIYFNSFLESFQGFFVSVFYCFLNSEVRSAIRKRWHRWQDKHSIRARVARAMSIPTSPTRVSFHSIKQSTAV
In short: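 Clone 2; cryopreserved stocks (10% DMSO); 4000 cells/well final; 100% activation = Sauvagine 100 nM; otherwise as TeloHAEC protocol.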

[3] = In vitro subcutaneous tissue supernatant (SCts) stability and metabolite identification, rat; type: in vitro ADME; design: remaining at 2 h: dose or concentration left out as unconfirmed; settings: male, Sprague Dawley; rat subcutaneous tissue supernatant (SCts), 37° C, 2 h
Protocol: In vitro metabolic stability in subcutaneous tissue supernatant (SCts) was studied in male Sprague Dawley rats. Test compounds were incubated […] for 2 hours at 37° C.
Software aided in vitro metabolite identification on SCts stability samples was performed using either Metabolite Pilot (Sciex) or Biopharma Finder (Thermo). In addition, metabolite identification using Metabolite Pilot was performed on plasma samples of Comp Y following SC administration to rat at 1 mg/kg.

[4] = Chemical stability in buffer (pH 7.4 / pH 4.5), % purity loss; type: physicochemical; settings: 40° C. vs 5° C., 14 or 28 days; for Buffer stability pH 7.4 % purity loss: 100 mM phosphate buffer pH 7.4
In short: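 LC-UV gave % loss after 14 or 28 days of storage at 5 °C or 40 °C. Samples were diluted supernatants from compound incubated 1 h at room temperature at 10 mg/mL target, in 100 mM acetate pH 4.5 or 100 mM phosphate pH 7.4.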

[5] = tested on: Sprague Dawley rats; experiment: Effect on systolic blood pressure, telemetry in Sprague Dawley rats; type: in vivo, rat; settings: 0.1 mg/kg SC; for Systolic blood pressure (Mean) % change from baseline, 8 h / Systolic blood pressure (Mean) % change from baseline, 12 h / Systolic blood pressure (Mean) % change from baseline, 24 h: n=2; for Duration of action: last time point with an effect on BP still observed
In short: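 Values are % change from a 1 h pre-dose baseline in systolic pressure, tracked by telemetry for up to 48 hours after a single 0.1 mg/kg subcutaneous dose. Rats (Sprague Dawley, n=2 per peptide) carried aortic catheters and recovered at least 10 days post-surgery; duration of action marks the last time point still showing an effect.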

CC[C@H](C)[C@H](NC(C)=O)C(=O)N[C@H](C(=O)N[C@@H](CC(C)C)C(=O)N[C@@H](CO)C(=O)N[C@@H](CC(C)C)C(=O)N[C@@H](CC(=O)O)C(=O)N[C@@H](C(=O)N1CCC[C@H]1C(=O)N[C@H](C(=O)N[C@@H](CCCCN)C(=O)N[C@@H](CC(C)C)C(=O)N[C@@H](CCCCNC(=O)CC[C@H](NC(=O)CCCCCCCCCCCCCCC(=O)O)C(=O)O)C(=O)N[C@@H](CCCCN)C(=O)N[C@H](C(=O)N[C@@H](CC(C)C)C(=O)N[C@@H](CC(C)C)C(=O)N[C@@H](CCC(=O)O)C(=O)N[C@@H](CCC(N)=O)C(=O)N[C@@H](CCC(=O)O)C(=O)N[C@@H](C)C(=O)N[C@@H](CCC(N)=O)C(=O)N[C@@H](CCCCN)C(=O)N[C@@H](CCCCN)C(=O)N[C@@H](CCC(N)=O)C(=O)N[C@@H](CCCNC(=N)N)C(=O)N[C@@H](CCC(=O)O)C(=O)N[C@@H](CCC(N)=O)C(=O)N[C@@H](C)C(=O)N[C@@H](CCC(=O)O)C(=O)N[C@H](C(=O)N[C@@H](CC(N)=O)C(=O)NC(C)(C)C(=O)N[C@@H](CCC(N)=O)C(=O)N[C@H](C(=O)N[C@@H](CC(C)C)C(=O)N[C@@H](C)C(=O)N[C@@H](CCC(N)=O)C(=O)N[C@H](C(N)=O)C(C)C)[C@@H](C)CC)[C@@H](C)O)[C@@H](C)CC)[C@@H](C)CC)C(C)C)C(C)C [compound 165] (Ac-IVLSLD[dV]PIKLK([γGlu-C16 diacid])KILLEQEAQKKQREQAETN[Aib]QILAQV-NH2)
EC50 [1]: 0.64 nM
Emax (% I) [2]: 14 % I
EC50 [2]: > 250 nM
remaining at 2 h [3]: 72%
Buffer stability pH 7.4 % purity loss [4]: 0.0/Not Tested %
Systolic blood pressure (Mean) % change from baseline, 8 h [5]: −30%
Systolic blood pressure (Mean) % change from baseline, 12 h [5]: −20%
Systolic blood pressure (Mean) % change from baseline, 24 h [5]: 2%
Duration of action [5]: 23 h

CC[C@H](C)[C@H](NC(C)=O)C(=O)N[C@H](C(=O)N[C@@H](CC(C)C)C(=O)N[C@@H](CO)C(=O)N[C@@H](CC(C)C)C(=O)N[C@@H](CC(=O)O)C(=O)N[C@@H](C(=O)N1CCC[C@H]1C(=O)N[C@H](C(=O)N[C@@H](CCCCN)C(=O)N[C@@H](CC(C)C)C(=O)N[C@@H](CCCCNC(=O)CC[C@H](NC(=O)CCCCCCCCCCCCCCC(=O)O)C(=O)O)C(=O)N[C@@H](CCCCN)C(=O)N[C@H](C(=O)N[C@@H](CC(C)C)C(=O)N[C@@H](CC(C)C)C(=O)N[C@@H](CCC(=O)O)C(=O)N[C@@H](CCC(N)=O)C(=O)N[C@@H](CCC(=O)O)C(=O)N[C@@H](CCCCN)C(=O)N[C@@H](CCC(N)=O)C(=O)N[C@@H](CCCCN)C(=O)N[C@@H](C)C(=O)N[C@@H](CCC(N)=O)C(=O)N[C@@H](CCCNC(=N)N)C(=O)N[C@@H](CCC(=O)O)C(=O)N[C@@H](CCC(N)=O)C(=O)N[C@@H](C)C(=O)N[C@@H](CCC(=O)O)C(=O)N[C@H](C(=O)N[C@@H](CC(N)=O)C(=O)NC(C)(C)C(=O)N[C@@H](CCC(N)=O)C(=O)N[C@H](C(=O)N[C@@H](CC(C)C)C(=O)N[C@@H](C)C(=O)N[C@@H](CCC(N)=O)C(=O)N[C@H](C(N)=O)C(C)C)[C@@H](C)CC)[C@@H](C)O)[C@@H](C)CC)[C@@H](C)CC)C(C)C)C(C)C [compound 161] (Ac-IVLSLD[dV]PIKLK([γGlu-C16 diacid])KILLEQEKQKAQREQAETN[Aib]QILAQV-NH2)
EC50 [1]: 0.32 nM
Emax (% I) [2]: 3 % I
EC50 [2]: > 250 nM
remaining at 2 h [3]: 59%
Buffer stability pH 7.4 % purity loss [4]: 0.6/Not Tested %

CC[C@H](C)[C@H](NC(C)=O)C(=O)N[C@H](C(=O)N[C@@H](CC(C)C)C(=O)N[C@@H](CO)C(=O)N[C@@H](CC(C)C)C(=O)N[C@@H](CC(=O)O)C(=O)N[C@@H](C(=O)N1CCC[C@H]1C(=O)N[C@H](C(=O)N[C@@H](CCCCN)C(=O)N[C@@H](CC(C)C)C(=O)N[C@@H](CCCCNC(=O)CC[C@H](NC(=O)CCCCCCCCCCCCCCC(=O)O)C(=O)O)C(=O)N[C@@H](CCCCN)C(=O)N[C@H](C(=O)N[C@@H](CC(C)C)C(=O)N[C@@H](CC(C)C)C(=O)N[C@@H](CCC(=O)O)C(=O)N[C@@H](CCC(N)=O)C(=O)N[C@@H](CCC(=O)O)C(=O)N[C@@H](CCCCN)C(=O)N[C@@H](CCC(N)=O)C(=O)N[C@@H](CCCCN)C(=O)N[C@@H](CCCCN)C(=O)N[C@@H](CCC(N)=O)C(=O)N[C@@H](CCCNC(=N)N)C(=O)N[C@@H](CCC(=O)O)C(=O)N[C@@H](CCC(N)=O)C(=O)N[C@@H](C)C(=O)N[C@@H](CCC(=O)O)C(=O)N[C@H](C(=O)N[C@@H](CC(N)=O)C(=O)NC(C)(C)C(=O)N[C@@H](CCC(N)=O)C(=O)N[C@H](C(=O)N[C@@H](CC(C)C)C(=O)N[C@@H](C)C(=O)N[C@@H](CCC(N)=O)C(=O)N[C@H](C(N)=O)C(C)C)[C@@H](C)CC)[C@@H](C)O)[C@@H](C)CC)[C@@H](C)CC)C(C)C)C(C)C [compound 40] (Ac-IVLSLD[dV]PIKLK([γGlu-C16 diacid])KILLEQEKQKKQREQAETN[Aib]QILAQV-NH2)
EC50 [1]: 0.25 nM
Emax (% I) [2]: 0 % I
EC50 [2]: > 250 nM
remaining at 2 h [3]: 79%
Buffer stability pH 7.4 % purity loss [4]: 0/nd ^ %
Systolic blood pressure (Mean) % change from baseline, 8 h [5]: −30%
Systolic blood pressure (Mean) % change from baseline, 12 h [5]: −18%
Systolic blood pressure (Mean) % change from baseline, 24 h [5]: 7%
Duration of action [5]: 23 h

CC[C@H](C)[C@H](NC)C(=O)N[C@H](C(=O)N[C@@H](CC(C)C)C(=O)N[C@@H](CO)C(=O)N[C@@H](CC(C)C)C(=O)N[C@@H](CC(=O)O)C(=O)N[C@@H](C(=O)N1CCC[C@H]1C(=O)N[C@H](C(=O)N[C@@H](CCCCN)C(=O)N[C@@H](CC(C)C)C(=O)N[C@@H](CCCCNC(=O)CC[C@H](NC(=O)CCCCCCCCCCCCCCCCCCC(=O)O)C(=O)O)C(=O)N[C@@H](CCCCN)C(=O)N[C@H](C(=O)N[C@@H](CC(C)C)C(=O)N[C@@H](CC(C)C)C(=O)N[C@@H](CCC(=O)O)C(=O)N[C@@H](CCC(N)=O)C(=O)N[C@@H](CCC(=O)O)C(=O)N[C@@H](CCCCN)C(=O)N[C@@H](CCC(N)=O)C(=O)N[C@@H](CCCCN)C(=O)N[C@@H](CCCCN)C(=O)N[C@@H](CCC(N)=O)C(=O)N[C@@H](CCCNC(=N)N)C(=O)N[C@@H](CCC(=O)O)C(=O)N[C@@H](CCC(N)=O)C(=O)N[C@@H](C)C(=O)N[C@@H](CCC(=O)O)C(=O)N[C@H](C(=O)N[C@@H](CC(N)=O)C(=O)NC(C)(C)C(=O)N[C@@H](CCC(N)=O)C(=O)N[C@H](C(=O)N[C@@H](CC(C)C)C(=O)N[C@@H](C)C(=O)N[C@@H](CCC(N)=O)C(=O)N[C@H](C(N)=O)C(C)C)[C@@H](C)CC)[C@@H](C)O)[C@@H](C)CC)[C@@H](C)CC)C(C)C)C(C)C [compound 214] (H-[NMeI]VLSLD[dV]PIKLK([γGlu-C20 diacid])KILLEQEKQKKQREQAETN[Aib]QILAQV-NH2)
EC50 [1]: 0.12 nM
Emax (% I) [2]: 34 % I
EC50 [2]: > 250 nM
remaining at 2 h [3]: 72%
Buffer stability pH 4.5 % purity loss ([4]; 100 mM acetate buffer pH 4.5): 0.0/0.0 ^ %
Buffer stability pH 7.4 % purity loss [4]: 0.0/0.0 ^ %
